Assay results published in ChEMBL document CHEMBL5143647, “Design, synthesis and biological evaluation of novel pyridine derivatives as gut-selective NaPi2b inhibitors” (Bioorg Med Chem Lett, 2022).
≈ marks a conversion by molar mass, not a printed value. One block for each molecule: values may come before it. Calls of active or inactive are those of the source. The calls are words filed in the database; no cut-off is given here.

Legend:
[1] = test system: Rattus norvegicus; experiment: In vivo inhibition of NaPi2b in Sprague-Dawley rat assessed as reduction in phosphate absorption at 10 mg/kg, po after 5 mins followed by NaH2PO4 containing 32P-phosphate solution treatment and measured after 15 to 30 mins by liquid scintillation counting method; type: functional, organism-based; settings: dose […], time 35.0 min
[2] = Oral bioavailability in Sprague-Dawley rat at 10 mg/kg measured for 24 hrs by liquid chromatography-tandem mass spectrometry relative to control; type: ADME, organism-based; settings: in vivo
[3] = Solubility in FeSSIF at pH 4.9 incubated for 25 degC for 2 hrs further incubated water bath at 35 degC for 22 hrs by HPLC analysis; type: physicochemical
[4] = Solubility in FaSSIF at pH 6.6 incubated for 25 degC for 2 hrs further incubated water bath at 35 degC for 22 hrs by HPLC analysis; type: physicochemical
[5] = Drug excretion in Sprague-Dawley rat feces at 10 mg/kg, po measured for 24 hrs by liquid chromatography-tandem mass spectrometry relative to control; type: ADME, organism-based; settings: faeces, read-out: Drug excretion
[6] = biological target: T1, Sodium-dependent phosphate transport protein 2B (Homo sapiens) (UniProt O95436); experiment: Inhibition of human NaPi2b at 1 uM relative to control
T1 sequence (whole entry): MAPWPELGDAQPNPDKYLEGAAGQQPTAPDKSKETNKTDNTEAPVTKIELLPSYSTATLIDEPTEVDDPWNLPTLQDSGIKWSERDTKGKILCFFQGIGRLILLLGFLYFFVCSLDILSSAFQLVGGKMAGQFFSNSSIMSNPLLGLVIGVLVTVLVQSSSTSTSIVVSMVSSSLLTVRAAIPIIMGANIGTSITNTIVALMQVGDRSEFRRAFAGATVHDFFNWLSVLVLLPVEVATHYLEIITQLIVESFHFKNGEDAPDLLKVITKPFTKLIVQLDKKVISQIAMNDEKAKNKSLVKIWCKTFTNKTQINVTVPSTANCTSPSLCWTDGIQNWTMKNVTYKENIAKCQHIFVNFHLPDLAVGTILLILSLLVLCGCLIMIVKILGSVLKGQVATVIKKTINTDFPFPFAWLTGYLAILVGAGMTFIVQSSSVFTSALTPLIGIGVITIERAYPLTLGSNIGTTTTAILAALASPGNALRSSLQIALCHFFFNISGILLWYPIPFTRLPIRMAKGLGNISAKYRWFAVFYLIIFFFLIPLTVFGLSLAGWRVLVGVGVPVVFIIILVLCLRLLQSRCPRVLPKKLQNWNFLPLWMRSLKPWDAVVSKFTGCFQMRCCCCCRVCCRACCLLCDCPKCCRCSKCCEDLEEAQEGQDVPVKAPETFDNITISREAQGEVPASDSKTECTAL

[7] = biological target: T2, Sodium-dependent phosphate transport protein 2B (Homo sapiens, UniProt O95436); experiment: Inhibition of human NaPi2b stably expressed in CHO-K1 cells assessed as reduction in H2[33P]O4 uptake incubated for 30 mins by liquid scintillation counting method; type: cell-based
T2 sequence (O95436 whole entry): T1 sequence (whole entry)

[8] = Oral bioavailability in Sprague-Dawley rat at 11.9 mg/kg measured for 24 hrs by liquid chromatography-tandem mass spectrometry; type: ADME, organism-based; settings: in vivo

bioavailability [2]: 2.7%
solubility at 24 h [3]: 15.9 µg/mL (≈ 16.6 µM)
solubility at 24 h [4]: 20.5 µg/mL (≈ 21.4 µM)
dose excreted at 24 h [5]: 99.1%
SMILES: CCN([C@H]1CC[C@H](C(=O)NCCOCCOCCOCCO)CC1)S(=O)(=O)c1cccc(C(=O)Nc2ccc(N3CCCCC3)nc2C(=O)Nc2ccc(CCc3ccc(C(=O)O)cc3)cc2)c1
inhibition [1]: Active

inhibition [6]: 87%
SMILES: CCC(CC)N(CCN(C)C(=O)CCC(=O)O)Cc1cccc(C(=O)Nc2[nH]c3c(c2C(=O)Nc2ccc(CCc4ccc(C(=O)O)cc4)cc2)CCCC3)c1

IC50 [7]: 205 nM
SMILES: CCC(CC)N(CCN(C)C(=O)CCC(=O)O)Cc1cccc(C(=O)Nc2ccc(N3CCOCC3)nc2C(=O)Nc2ccc(CCc3ccc(C(=O)O)cc3)cc2)c1

IC50 [7]: 715 nM
SMILES: CCC(CC)N(CCN(C)C(=O)CCC(=O)O)Cc1cccc(C(=O)Nc2ccc(N3CCCCC3)nc2C(=O)Nc2ccc(Oc3ccc(C(=O)O)cn3)cc2)c1

bioavailability [8]: 10.4%
SMILES: CCN([C@H]1CC[C@H](C(=O)O)CC1)S(=O)(=O)c1cccc(C(=O)Nc2ccc(N3CCCCC3)nc2C(=O)Nc2ccc(CCc3ccc(C(=O)NS(=O)(=O)NC)cc3)cc2)c1

IC50 [7]: 162 nM
SMILES: CCC(CC)N(CCN(C)C(=O)CCC(=O)O)Cc1cccc(C(=O)Nc2ccc(N3CCCCC3)nc2C(=O)Nc2ccc(Oc3ccc(C(=O)O)cc3)cc2)c1
